Patent publication US11076595B2, “1-(n,n-disubstituted carbamoyl) 4-(substituted sulfonyl)triazolin-5-one derivative, 4-(n,n-disubstituted carbamoyl) 1-(substituted sulfonyl)triazolin-5-one derivative, and herbicide containing said derivative as active ingredient” (HOKKO CHEMICAL INDUSTRY CO., LTD., priority 2017, dated 2021)

What was measured:
Format in all cases: in vivo
[1] = test system: Echinochloa crus-galli; experiment: Test Example 11: herbicidal effect test by soil treatment in paddy field; settings: 120 g/10a active ingredient, 14 days after treatment
Outline: (§1)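 Weed suppression rate (%) was calculated as (1 − mean treated dry weight / mean untreated dry weight) × 100 at 14 days after treatment, two replicates per plot. Seeds were sown at 0–1 cm in flooded (about 3 cm) puddled paddy soil and treated immediately at 120 g active ingredient per 10 are.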

[2] = test system: Lindernia pyxidaria; experiment: as above; settings: 120 g/10a active ingredient, 14 days after treatment
Outline: as §1

[3] = test system: Monochoria vaginalis; experiment: as above; settings: 120 g/10a active ingredient, 14 days after treatment
Outline: as §1

[4] = test system: Scirpus juncoides; experiment: as above; settings: 120 g/10a active ingredient, 14 days after treatment
Outline: as §1

[5] = test system: Echinochloa crus-galli; experiment: Test Example 12: herbicidal effect test by treatment during growing period in paddy field; settings: 120 g/10a; treatment seven days after sowing in flooded paddy pot; assessed 14 days after treatment
Outline: (§2)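 Read-out: weed suppression (%) = (1 − treated/untreated mean dry weight) × 100, scored 14 days after treatment with two replications. Pots held puddled paddy soil, 30 seeds per species sown 0–1 cm, flooded ~3 cm. Post-emergence dropwise water application at 7 days after sowing, 120 g a.i./10 are.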

[6] = test system: Lindernia pyxidaria; experiment: as above; settings: 120 g/10a; treatment seven days after sowing in flooded paddy pot; assessed 14 days after treatment
Outline: as §2

[7] = test system: Monochoria vaginalis; experiment: as above; settings: 120 g/10a; treatment seven days after sowing in flooded paddy pot; assessed 14 days after treatment
Outline: as §2

[8] = test system: Scirpus juncoides; experiment: as above; settings: 120 g/10a; treatment seven days after sowing in flooded paddy pot; assessed 14 days after treatment
Outline: as §2

Row | Compound | Weed suppression rate (%) Echinochloa crus-galli [1] [%] | Weed suppression rate (%) Lindemia pyxidaria [2] [%] | Weed suppression rate (%) Monochoria vaginalis [3] [%] | Weed suppression rate (%) Scirpus juncoides [4] [%] | Weed suppression rate (%) Echinochloa crus-galli [5] [%] | Weed suppression rate (%) Lindemia pyxidaria [6] [%] | Weed suppression rate (%) Monochoria vaginalis [7] [%] | Weed suppression rate (%) Scirpus juncoides [8] [%]
1 | CC(C)N(C(=O)n1cnn(S(=O)(=O)c2cccc(Cl)c2)c1=O)c1ccc(F)c(F)c1F [Compound 11-553] | 100 | 90 | 70 | 30 | 100 | 70 | 60 | 30
2 | CC(C)N(C(=O)n1cnn(S(=O)(=O)c2cccc(Cl)c2)c1=O)c1c(F)cc(F)cc1F [Compound 11-554] | 100 | 90 | 70 | 70 | 80 | 80 | 80 | 90
3 | Cc1cc(F)ccc1N(C(=O)n1cnn(S(=O)(=O)c2cccc(Cl)c2)c1=O)C(C)C [Compound 11-563] | 100 | 100 | 90 | 100 | 100 | 80 | 80 | 100
4 | CC(C)N(C(=O)n1cnn(S(=O)(=O)c2ccc(Cl)cc2)c1=O)c1cccc(F)c1F [Compound 11-587] | 90 | 80 | 60 | 60 | 90 | 80 | 90 | 90
5 | CC(C)N(C(=O)n1cnn(S(=O)(=O)c2ccc(Cl)cc2)c1=O)c1ccc(F)c(F)c1F [Compound 11-591] | 100 | 90 | 70 | 60 | 60 | 70 | 70 | 100
6 | CC(C)N(C(=O)n1cnn(S(=O)(=O)c2ccc(Cl)cc2)c1=O)c1c(F)cc(F)cc1F [Compound 11-592] | 100 | 100 | 90 | 80 | 100 | 80 | 100 | 80
7 | Cc1cc(F)ccc1N(C(=O)n1cnn(S(=O)(=O)c2ccc(Cl)cc2)c1=O)C(C)C [Compound 11-601] | 70 | 80 | 80 | 60 | 60 | 70 | 70 | 60
8 | CC(C)N(C(=O)n1cnn(S(=O)(=O)c2ccc(Cl)cc2)c1=O)c1ccc(Cl)cn1 [Compound 11-612] | 100 | 100 | 70 | 70 | 80 | 90 | 70 | 90
